US7108997B2, “Assay for detecting inhibitors of the enzyme myeloperoxidase” (AstraZeneca AB, priority 2001, dated 2006)
Like-named read-outs stand apart in the source and are kept apart here.

What was measured:
Format in all cases: biochemical
MPO [1] = target: T1, MPO (Homo sapiens, UniProt P05164); assay: In vitro MPO assay measuring HOCl production (Example 1); design: purchased Planta
T1 sequence (P05164 49-745): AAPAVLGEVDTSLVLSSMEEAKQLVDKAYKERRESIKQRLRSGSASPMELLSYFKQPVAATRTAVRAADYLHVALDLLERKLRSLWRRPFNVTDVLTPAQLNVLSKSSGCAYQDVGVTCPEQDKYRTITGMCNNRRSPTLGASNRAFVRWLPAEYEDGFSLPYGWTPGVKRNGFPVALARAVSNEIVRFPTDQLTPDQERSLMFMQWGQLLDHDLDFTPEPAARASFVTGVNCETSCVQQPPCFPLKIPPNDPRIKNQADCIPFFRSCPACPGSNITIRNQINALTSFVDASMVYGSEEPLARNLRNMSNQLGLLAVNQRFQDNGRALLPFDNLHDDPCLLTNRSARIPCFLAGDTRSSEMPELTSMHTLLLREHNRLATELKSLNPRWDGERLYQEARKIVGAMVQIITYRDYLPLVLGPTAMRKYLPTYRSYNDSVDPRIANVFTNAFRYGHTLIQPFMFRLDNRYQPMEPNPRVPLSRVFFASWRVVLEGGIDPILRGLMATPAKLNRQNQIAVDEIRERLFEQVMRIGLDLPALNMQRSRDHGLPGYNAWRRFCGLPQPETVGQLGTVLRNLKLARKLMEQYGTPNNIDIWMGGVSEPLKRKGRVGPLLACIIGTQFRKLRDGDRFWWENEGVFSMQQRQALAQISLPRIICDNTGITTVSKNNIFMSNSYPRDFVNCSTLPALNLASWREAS
Method: Here we describe an in vitro MPO assay that was developed to assess inhibition of enzyme activity. Essentially the MPO assay was designed to measure the production of hypochlorous acid (HOCl), which is the key physiological product generated by the enzyme in vivo. An outline of the assay reactions is given:
Compounds were preincubated with the MPO enzyme in buffer for about 15 minutes prior to start of the reaction with H2O2. The whole reaction was carried out at room temperature for 10 minutes in a 96-well plate. […] All test concentrations were done in duplicate with at least two separate determinations (n=2; unless otherwise stated). The inhibitory concentration for a compound is presented as pIC50, which is −log IC50.

[2] = target: T2, purified human myeloperoxidase (Homo sapiens, UniProt P05164); assay: Taurine chloramine/TMB assay of HOCl production by purified myeloperoxidase with test compounds; details: for [HOCl]: HOCl generated by myeloperoxidase in presence of 10 μM test compounds (DMSO 0.1%), stopped after five minutes with catalase, None = 56.2 ± 2.1; for % Inhibition: inhibition of HOCl production, 10 μM test compounds (DMSO 0.1%), negative = enhancement
T2 sequence (P05164 49-745): T1 sequence (P05164 49-745)
Method: The taurine chloramine assay of the present invention was used to detect HOCl generated by purified human myeloperoxidase. Hydrogen peroxide (100 μM) was added to 20 mM phosphate buffer pH 6.5 containing 20 nM myeloperoxidase, 100 mM NaCl and 10 mM taurine. The mixture was incubated for 15 minutes at room temperature and the reaction stopped by adding catalase (10 μg/ml). Five minutes later developing reagent was added to detect the generated taurine chloramine. The amount of taurine chloramine produced was compared to that formed by adding 100 μM HOCl to the PBST. […] The concentration of stock hydrogen peroxide was determined using E240 43.6 M^−1 cm^−1 and that of stock hypochlorite using E292 350 M^−1 cm^−1.
Hypochlorous acid was generated by myeloperoxidase in the absence or presence of 10 μM test compounds under the conditions described above for the time course experiment. Reactions were initiated by adding hydrogen peroxide and stopped five minutes later by adding catalase.

MPO [3] = target: T1, MPO; assay: MPO taurine chloramine/TMB assay with catalase stop (Example 5)
Method: Assay buffer: 20 mM sodium/potassium phosphate buffer pH 6.5 containing 10 mM taurine and 100 mM NaCl.
Developing reagent: 2 mM TMB, 200 μM KI, 200 mM acetate buffer pH 5.4 with 20% DMF.
To 10 μl of diluted compounds in assay buffer, 40 μl of MPO (final concentration 2.5 nM) was added for 10 minutes at room temperature. Then 50 μl of H2O2 (final concentration 100 μM), or assay buffer alone as a control, were added for 10 minutes at room temperature. […] Plates were mixed and subsequently read at 650 nm.

[4] = target: T2, purified human myeloperoxidase; assay: Taurine chloramine/TMB assay of HOCl production by purified myeloperoxidase with test compounds; details: catalase at 20 μg/ml

| [HOCl] [2] | inhibition at 10 µM ([2]; read-out: % Inhibition) | Compound | other results |
| --- | --- | --- | --- |
| 1.8 ± 0.1 µM | 97% | Nc1ccc(S(=O)(=O)c2ccc(N)cc2)cc1 [Dapsone] | IC50 (MPO [3]; in the absence of tyrosine): 257 ± 73 nM; IC50 (MPO [3]; in the presence of 8 μM tyrosine): 7120 ± 610 nM |
| 52.8 ± 1.2 µM | – | C[S+](C)[O-] [DMSO, dimethylsulphoxide] | % Inhibition [2]: 6% |
| 107.0 ± 0.5 µM | -90% | N[C@@H](Cc1ccc(O)cc1)C(=O)O [Tyrosine] | – |

The next lines start with the compound.

| Compound | [HOCl] [2] | inhibition at 10 µM ([2]; read-out: % Inhibition) | other results |
| --- | --- | --- | --- |
| COc1ccc2[nH]cc(CCO)c2c1 [5-Methoxytryptophol] | – | – | IC50 (MPO [1]): 501 nM |
| Nc1ccc(S(=O)(=O)Nc2nccs2)cc1 [N-1(2-thiazolyl)-sulfanilamide] | – | – | IC50 (MPO [1]): 1000 nM |
| Nc1ccc(Br)cc1 [p-Bromoaniline] | 2.5 ± 0.1 µM | – | inhibition at 10 µM [2]: 95.6% |
| COc1ccc(OC)cc1 [1,4-Dimethoxybenzene] | 15.2 ± 1.0 µM | 73% | – |
| Catalase | 8.8 ± 1.3 µM | – | % Inhibition [2]: 84%; inhibition of the formation of HOCl [4]: 90% |
